Results from US5602161A, “Tetrazolylphenyl pivalate derivatives and medicinal composition containing the same as effective component” (Wakamoto Pharmaceutical Co., Ltd., priority 1994, dated 1997).
Where a name gives a salt, the structure may show the parent alone. Read-outs that look alike come from different tables or passages of the source.

Columns and labels:
[1] = Cytotoxicity test (MTT, three days); type: cell-based; details: mouse, l1210 cells, read-out: Survival rate; for viability at 72 h, 1 µM: final concentration 1 μM; for viability at 72 h, 5 µM: final concentration 5 μM; for viability at 72 h, 10 µM: final concentration 10 μM
Protocol: L1210 (lymphocytic leukemia, mouse) cells in a logarithmic growth phase were collected and washed twice with HBSS (Hanks' balanced salt solution). The L1210 cells were resuspended at 5.0×10^4 cells/ml in RPMI 1640 medium containing 10% heat-inactivated fetal bovine serum. The cell suspension was dispensed in 100 μl aliquots into 96 well multi-plate. Each of compounds to be tested was dissolved in dimethylsulfoxide at a concentration of 10 mM. The solutions were stepwise diluted with RPMI 1640 solution containing 10% heat-inactivated fetal bovine serum. Each of the diluted samples was dispensed in an amount of 10 μl well in the 96 well multi-plate containing L1210 cells and incubated for three days at 37° C. in humidified 5% CO2 -air mixture. To each of the wells, 10 μl of MTT (3-(4,5-dimethylthiazol-2-yl)-2,5-diphenyltetrazolium bromide)(5 mg/ml in phosphate buffer free of Ca^2+ and Mg^2+) was added. Cultivation was continued for additional five hours at 37° C. in humidified 5% CO2 -air mixture. To each of the wells, 100 μl of 20% SDS (sodium dodecyl sulfate) in 0.01N HCl was added to solubilize the MTT formazan.
Absorbance was measured at 630 nm as a reference wavelength and 570 nm as a measuring wavelength using Corona Electric MTP22 Microplate Photometer. The measurement was conducted three times for each of the samples to obtain an average value and a standard deviation. Survival rate was calculated by the following equation:
Survival rate (5)=[(absorbance of test sample)/(absobance of […]

[2] = biological target: T1, human neutrophil elastase (Homo sapiens, UniProt P08246); assay: Inhibitory effect on elastase (human neutrophil), spectrophotometric assay with MeOSuc-Ala-Ala-Pro-Val-pNA; type: biochemical
T1 construct: using elastase from human neutrophil or human sputum; from tissue; host or cells: human neutrophil
T1 sequence (P08246 30-247 limits assumed): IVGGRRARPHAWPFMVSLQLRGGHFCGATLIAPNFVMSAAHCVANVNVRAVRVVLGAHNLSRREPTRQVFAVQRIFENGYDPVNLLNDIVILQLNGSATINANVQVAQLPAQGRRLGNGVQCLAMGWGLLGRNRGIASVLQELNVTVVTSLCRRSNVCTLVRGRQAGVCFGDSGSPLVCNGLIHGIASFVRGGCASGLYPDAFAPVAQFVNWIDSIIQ
Protocol: (§1) Namely, it is a spectrophotometric assay using the synthesized substrate, methoxysuccinyl-alanyl-alanyl- prolyl-valyl-p-nitroanilide(MeOSuc-Ala-Ala-Pro-Val-pNA, Cambridge research biochemical Co.) which has high specificity on neutrophil elastase.
(§2) 20 μl of a test compound of various concentrations and 20 μl of enzyme solution (13 unit/ml) were added to 400 μl of 0.1M sodium phosphate buffer (pH 8.0). The mixture was incubated at 37° C. for 5 min, and then 20 μl of the substrate was added to the mixture in a final volume of 460 μl. The reaction was conducted by incubating thus obtained mixture at 37° C. for 20 min. The reaction was stopped by the addition of 300 μl of 20% acetic acid into the reaction mixture, and then p-nitroanilide released was measured by the spectrophotometrically at 405 nm.
(§3) Inhibition percents of the test compounds were calculated by the following equation:
(§4) Inhibition %=[1-(OD 405 nm value of the testing sample-background)/(OD 405 nm value of the control-background)]×100

[3] = tested on: endotoxin induced acute lung injury in mice; assay: Inhibitory effect on endotoxin induced acute lung injury in mice; type: in vivo, ICR mice; details: Mus musculus, oral 10 mg/Kg at 1.5 hr before and 4.5~5.0 hr after LPS (25 μg/site), BAL fluid at 19~20 hrs
Protocol: ICR mice (25~30 g, .male., n=7) were used.
The test compounds were suspended at 0.1% in 0.5% sodium carboxymethylcellulose-saline.
Oral administration of the test compounds were given at 10 mg/Kg at 1.5 hr before an intratracheal instillation of LPS (E.coli, 055:B5, Difico, 25 μg/site). After sodium pentobarbital anesthetized, LPS dissolved in sterile saline was instilled intratracheally via a ventral neck in the throat incisionusing with a 250 μl syringe attached to a 27-gauge needle.
The throat incisions were sutured with surgical threads, and PI-compound was administered with the same mannner as described above 4.5~5.0 hr after LPS instillation.
Up 19~20 hrs after LPS instillation, animals were euthanized by an i.p. pentobarbital overdose, each animal trachea was reexposed and the ventral neck region was small incised.
A 10 cm length of small-diameter (O.D=0.5 mm) polyethylene catheter inserted and held in place using surgical suture. The lung was then lavaged with a single 500 μl sterile saline using a 1 ml syringe by gently expanding the lung and then withdrawing the saline. The same operation was repeated 6 times, yielding a final volume of 3 ml bronchoalveolar lavage (BAL) fluid from each animal.
Evaluation of testing compounds were expressed as inhibitory percent of hemorrhage and leukocyte infiltration in the lung of each animals.
Estimation for hemorrhage:
Red blood cells were bursted with adding 50 μl KCN solution (0.33 %) per 1 ml of BAL fluid, and then the amount of blood in each BAL fluid samples were calculated from a hemoglobin standard curve.
Estimation of leukocyte infiltrations:
BAL fluid was diluted to 100 fold with a balanced electrolyte solution and KCN solution (0.33%) was added to the diluted BAL fluid for lysis of contaminating red blood cells.
Leukocyte number was determined from the average of the three times count using a particle counter.
The inhibitory effect of testing compounds were calculated from thefollowing equation:
Inhibitory percent=[1-(The average value of the test compound group)/(The
average value of the control group)]×100
The control animals were dosed orally with the same amount of the vehicle before and after intratracheal instillation of LPS and were operated with the same manner as the animals tested with the test compounds.

[4] = biological target: T2, human sputum elastase (Homo sapiens, UniProt P08246); assay: Inhibitory effect on elastase (human sputum), spectrophotometric assay with MeOSuc-Ala-Ala-Pro-Val-pNA; type: biochemical; details: S: human sputum elastase; pH 8.0, 37° C.; read-out: IC50
T2 sequence (P08246 30-247 limits assumed): T1 sequence (P08246 30-247 limits assumed)
Protocol: as §1, §2, §3, §4

[5] = N: human neutrophil elastase, pH 8.0, 37° C., read-out: IC50
[6] = Leukocyte, read-out: Inhibitory percent of leukocyte infiltration
[7] = read-out: Inhibitory percent of hemorrhage

SMILES	IC50 [2, 5] [nM]	IC50 [4] [nM]	also measured
COc1ccc(COCCCCn2nnc(-c3cccc(OC(=O)C(C)(C)C)c3)n2)cc1 [Example 23, 3-[2-[4-(4-Methoxybenzyloxy)butyl]tetrazol-5-yl]phenyl pivalate]	22	–	viability at 72 h, 1 µM [1]: 104%; viability at 72 h, 5 µM [1]: 102%; viability at 72 h, 10 µM [1]: 94.3%
CC(C)(C)C(=O)Oc1ccc(-c2nnn(CCc3ccccc3)n2)cc1 [Example 14, 4-[2-(2-Phenylethyl)tetrazol-5-yl]phenyl pivalate]	76	–	–
CC(C)(C)C(=O)Oc1ccc(-c2nnn(CCOC(=O)c3ccc(NC(=N)N)cc3)n2)cc1 [Example 94, 4-[2-[2-(4-Guanidinobenzoyloxy)ethyl]tetrazol-5-yl]phenyl pivalate Acetate]	–	–	IC50 [2]: 96 nM; inhibition in vivo at 10 mg/kg [3, 6]: 51.8%; inhibition in vivo at 10 mg/kg [3, 7]: 36.6%
CN(C)CCOc1ccc(Cn2nnc(-c3ccc(OC(=O)C(C)(C)C)cc3)n2)cc1 [Example 46, 4-[2-[4-(2-Dimethylaminoethoxy)benzyl]tetrazol-5-yl]phenyl pivalate Hydrochloride]	89	–	–
COc1ccc(COc2ccc(Cn3nnc(-c4ccc(OC(=O)C(C)(C)C)cc4)n3)cc2)cc1 [Example 18, 4-[2-[4-(4-Methoxybenzyloxy)benzyl]tetrazol-5-yl]phenyl pivalate]	17	160	–
CC(C)(C)C(=O)Oc1ccc(-c2nnn(Cc3ccc(C(F)(F)F)cc3)n2)cc1 [Example 17, 4-[2-(4-Trifluoromethylbenzyl)tetrazol-5-yl]phenyl pivalate]	100	–	–
CC(C)(C)C(=O)Oc1ccc(-c2nnn(Cc3ccc(C(=O)N4CCC[C@H]4C(=O)O)cc3)n2)cc1 [Example 59, N-[4-[5-(4-pivaloyloxyphenyl)tetrazol-2-ylmethyl]benzoyl]-L-Proline]	–	40	inhibition in vivo at 10 mg/kg [3, 6]: 58.8%; inhibition in vivo at 10 mg/kg [3, 7]: 81.5%
CC(C)(C)C(=O)Oc1ccc(-c2nnn(CCCCC(=O)O)n2)cc1 [Example 93, 5-[5-(4-Pivaloyloxyphenyl)tetrazol-2-yl]valeric acid]	520	–	–
COc1ccc(CCCCn2nnc(-c3ccc(OC(=O)C(C)(C)C)cc3)n2)cc1 [Example 21, 4-[2-[4-(4-Methoxyphenyl)butyl]tetrazol-5-yl]phenyl pivalate]	62	–	–
CC(C)(C)C(=O)Oc1ccc(-c2nnn(C(C(=O)OCc3ccccc3)c3ccccc3)n2)cc1 (stereo not drawn) [Example 51, 4-[2-[α-(Benzyloxycarbonyl)benzyl)tetrazol-5-yl]phenyl pivalate]	–	38	inhibition in vivo at 10 mg/kg [3, 6]: 20.5%; inhibition in vivo at 10 mg/kg [3, 7]: 57%
CC(C)(C)C(=O)Oc1ccc(-c2nnn(CCCCCO)n2)cc1 [Example 74, 4-[2-(5-Hydroxypentyl)tetrazol-5-yl]phenyl pivalate]	98	–	–
CC(C)(C)C(=O)Oc1ccc(-c2nnn(COCc3ccccc3)n2)cc1 [Example 15, 4-[2-(Benzyloxymethyl)tetrazol-5-yl]phenyl pivalate]	94	–	–
COc1ccc(CCn2nnc(-c3ccc(OC(=O)C(C)(C)C)cc3)n2)cc1 [Example 44, 4-[2-[2-(4-Methoxyphenyl)ethyl]tetrazol-5-yl]phenyl pivalate]	85	–	–
CC(C)Cn1nnc(-c2ccc(OC(=O)C(C)(C)C)cc2)n1 [Example 37, 4-[2-(2-Methylpropyl)tetrazol-5-yl]phenyl pivalate]	–	180	viability at 72 h, 1 µM [1]: 92.5%; viability at 72 h, 5 µM [1]: 106%; viability at 72 h, 10 µM [1]: 95.5%
CN(C)Cc1ccc(Cn2nnc(-c3ccc(OC(=O)C(C)(C)C)cc3)n2)cc1 [Example 47, 4-[2-[4-(Dimethylaminomethyl)benzyl]tetrazol-5-yl]phenyl pivalate]	–	140	inhibition in vivo at 10 mg/kg [3, 6]: 61.5%; inhibition in vivo at 10 mg/kg [3, 7]: 48.6%
COc1ccc(CCCn2nnc(-c3ccc(OC(=O)C(C)(C)C)cc3)n2)cc1 [Example 20, 4-[2-[3-(4-Methoxyphenyl)propyl]tetrazol-5-yl]phenyl pivalate]	90	–	–
CC(C)(C)C(=O)Oc1ccc(-c2nnn(CC(=O)Nc3ccccc3)n2)cc1 [Example 11, 4-[2-(N-Phenylcarbamoylmethyl)tetrazol-5-yl]phenyl pivalate]	850	–	–
CC(C)c1ccc(-n2nnc(-c3ccc(OC(=O)C(C)(C)C)cc3)n2)cc1 [Example 6, 4-[2-(4-Isopropylphenyl)tetrazol-5-yl)phenyl pivalate]	–	4400	viability at 72 h, 1 µM [1]: 94.9%; viability at 72 h, 5 µM [1]: 88.7%; viability at 72 h, 10 µM [1]: 70.1%
CC(C)(C)C(=O)Oc1ccc(-c2nnn(Cc3ccccc3C(=O)NCC(=O)O)n2)cc1 [Example 63, N-[2-[5-(4-Pivaloyloxyphenyl)tetrazol-2-ylmethyl]benzoyl]glycine]	300	–	viability at 72 h, 1 µM [1]: 105%; viability at 72 h, 5 µM [1]: 103%; viability at 72 h, 10 µM [1]: 100%
COc1ccc(COCCCCn2nnc(-c3ccc(OC(=O)C(C)(C)C)cc3)n2)cc1 [Example 42, 4-[2-[4-(4-Methoxybenzyloxy)butyl]tetrazol-5-yl]phenyl pivalate]	19	22	inhibition in vivo at 10 mg/kg [3, 6]: 64.1%; inhibition in vivo at 10 mg/kg [3, 7]: 39.4%
COC(=O)c1ccccc1Cn1nnc(-c2ccc(OC(=O)C(C)(C)C)cc2)n1 [Example 24, 4-[2-(2-Methoxycarbonylbenzyl)tetrazol-5-yl]phenyl pivalate]	100	–	–
CC(C)(C)C(=O)Oc1ccc(-c2nnn(Cc3ccc(O)cc3)n2)cc1 [Example 75, 4-[2-(4-Hydroxybenzyl)tetrazol-5-yl]phenyl pivalate]	80	–	–
COc1ccc(COCCn2nnc(-c3ccc(OC(=O)C(C)(C)C)cc3)n2)cc1 [Example 41, 4-[2-[2-(4-Methoxybenzyloxy)ethyl]tetrazol-5-yl]phenyl pivalate]	65	–	–
COc1cc(-c2nnn(Cc3ccc(N(C)C)cc3)n2)ccc1OC(=O)C(C)(C)C [Example 48, 4-[2-[4-(Dimethylamino)benzyl]tetrazol-5-yl]-2-methoxyphenyl pivalate]	–	700	viability at 72 h, 1 µM [1]: 99.4%; viability at 72 h, 5 µM [1]: 94.6%; viability at 72 h, 10 µM [1]: 86.1%
COc1ccc(Cn2nnc(-c3ccc(OC(=O)C(C)(C)C)cc3)n2)cc1 [Example 13, 4-[2-(4-Methoxybenzyl)tetrazol-5-yl]phenyl pivalate]	72	–	–
CC(C)(C)C(=O)Oc1ccc(-c2nnn(CC(=O)N3CCCCC3)n2)cc1 [Example 12, 4-[2-(Piperidinocarbonylmethyl)tetrazol-5-yl]phenyl pivalate]	510	–	–
